“Also recorded” adds a separate entry of the source.
System: α-synuclein
Assay: α-synuclein protein level in day 30 iPSC-derived mDA (DaN) cultures after drug treatment (western blot, immunostaining)
Type: cell-based, human
Experimental: iPSC maintenance, mDA neuron differentiation and drug treatments: iPSCs were maintained in E8 media on Matrigel and passaged every 5 days at split ratios from 1:6 to 1:12 as needed using Versene. Only iPSCs between passage 17 and passage 35 were used in this study. For differentiation, iPSCs were grown to ˜80% confluency. Cells were singularized with Accutase (Millipore/Sigma #SCR005) (5 minutes at 37° C.) and plated onto Matrigel-coated 6-well plates (BD Biosciences) at 200K cells per cm^2 (for a fully confluent monolayer) in E8 media with 5 μM Y27632 (StemGent). 24 hours after plating, media was changed to Stage 1 (50% DMEM/F12, 50% Neurobasal, N2, B27-Vitamin A, LDN-193189 (LDN), SB431542 (SB)). Stage 1 media was changed each day (3 mL per well) for 3 days. Media was next switched to Stage 2 (50% DMEM/F12, 50% Neurobasal, N2, B27-Vitamin A, LDN, SB, Purmorphamine (PMN), CHIR99021 (CHIR), Sonic hedgehog (SHH), Fibroblast Growth Factor 8 (FGF8)). Stage 2 media was changed each day (3 mL per well) for 4 days. Media was then switched to Stage 3 (50% DMEM/F12, 50% Neurobasal, N2, B27-Vitamin A, LDN, CHIR, all-trans-Retinoic acid (ATRA)). Stage 3 media was changed each day (3 mL per well) for 4 days. Finally, media was switched to Stage 4 (50% DMEM/F12, 50% Neurobasal, N2, B27+Vitamin A, Brain-Derived Neurotrophic Factor (BDNF), Glial Cell Line-Derived Neurotrophic Factor (GDNF), dibutyryl cyclic-AMP sodium salt (dbCAMP), L-Ascorbic Acid (AA), γ-Secretase inhibitor (DAPT), CHIR, Transforming Growth Factor beta-3 (TGF β3)). Stage 4 media was changed each day (3 mL per well) for 3 days. On day 15, cells were dissociated to single cells using Accutase (20 mins at 37° C.) and gently lifted. Dissociated cells were resuspended in Maturation Medium (50% DMEM/F12, 50% Neurobasal, N2, B27+Vitamin A, BDNF, GDNF, dbCAMP, AA, DAPT, TGF3) plus 5 μM Y27632 and reseeded onto Matrigel-coated 6-well plates at 200 k/cm^2 in 1 mL total volume or onto Matrigel-coated L-glass coverslips in a 24-well plate at 200 k/50 μL drop. Cells were allowed to attach for 45 mins at 37° C. and Maturation Medium was then added to final volumes of 3 mL per well for 6-well plates or 1.5 mL per well for 24-well plates with coverslips. A full medium change was performed 48-hours post-seeding and medium was changed every 3 days until day 30. For drug treatments, cells at day-27 were fed with Maturation Medium containing the indicated drug and cells were analyzed at day 30.
Immunocytochemistry and imaging: mDA neuron cultures were plated on L-glass coverslips and grown as above. Day 30 neurons were fixed in 4% PFA at room temperature for 10-15 mins. Fixed coverslips were washed in PBS and permeabilized for 10 minutes at room temperature in 1% Triton X-100 in PBS, followed by staining in primary antibody solution (5% normal donkey serum, 0.125% Triton-X, PBS) overnight at 4° C. with the following antibodies: TH (1:5000, Immunostar #22941) and α-synuclein (1:500, Abcam #ab138501). Samples were washed 3 times in PBS and stained with species-specific Alexa Fluor 488 or 594-conjugated secondary antibodies (1:500, Invitrogen) for 2 hours at room temperature, followed by DAPI counterstain. Confocal Z-stack images were acquired using a A1 microscope (Nikon) with 40× and 20× objectives and rendered using maximum intensity projection through IMARIS software (Bitplane).
Western blot: Cells were gently scraped off the plates, washed with PBS, centrifuged at 15000 RPM for 1 min, and dry pellets were frozen at −80° C. Samples were then thawed and lysed using 1×NETN buffer (20 mM Tris-HCl (pH 8.0), 100 mM NaCl, 0.5 mM EDTA and 0.5% NP-40) supplemented with phosphatase/protease inhibitor cocktail (MS-SAFE, Sigma-Aldrich). Lysates were sonicated in an automated cold bath sonicator for 20 mins using alternating 10 sec pulses followed by 10 sec rests. Samples were centrifuged for 20 min at 4° C. at 15000 RPM. Total soluble protein concentrations were measured using a Bradford assay (BIO-RAD). […]

C/C=C(/C)C(=O)O[C@H]1C(C)=C[C@]23C(=O)[C@@H](C=C(CO)[C@@H](O)[C@]12O)[C@H]1[C@@H](C[C@H]3C)C1(C)C [PEP005, ingenol-3-angelate] was tested, and the “α-synuclein levels (western blot)” value (EOSPD/PD cultures (190iPD), treated 3 days from day 27, PEP005 1 μM, SMER-28 5 μM, Trehalose) was “substantially reduced”, the α-synuclein by immunostaining (PEP005-treated mDA cultures) was “decreased” and the “α-synuclein levels (western blot)” value (both control and PD cultures / all treated lines, PEP005 1 μM, 3 days) was “reduced; also recorded: decrease; also recorded: rapid reduction”. The “amount of α-synuclein protein (western blot)” value (control line cultures (02iCTR), treated 3 days from day 27, PEP005 1 μM, SMER-28 5 μM, Trehalose) was “significantly reduced”, the “α-synuclein at low PEP005 doses” value (dose response study, low doses) was “robust reduction” and the “time until α-synuclein is degraded in response to drug treatment” value (time-course, control and PD cultures) was ≤ 24 h.

From patent US12564568B2, “PKC pathway in Parkinson's Disease” (CEDARS-SINAI MEDICAL CENTER, priority 2018, dated 2026)
